Results taken from PubChem BioAssay AID179 (DTP/NCI, 2004).
Calls of active or inactive are those of the source.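 How the source made its calls: active means compounds giving half or more protection of infected cells from virus-caused growth loss, again on retest; inactive means the rest.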

System: CEM cells HIV-1 protection, formazan growth assay
Assay: NCI AIDS Antiviral Assay
Conditions: for IC50: measured here: growth of uninfected CEM cells
How it was run: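 Steps: treat uninfected and HIV-1-infected human CEM cells at five drug levels; quantify growth by soluble formazan; retest any compound reaching 50% protection; classify actives from the retest.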

| Structure (SMILES) | EC50 [µM] | IC50 [µM] | outcome |
| --- | --- | --- | --- |
| O=C(O)/C(=C\c1ccc(F)cc1)c1ccccc1 | > 537 | 309 | – |
| O=c1c2cc([N+](=O)[O-])ccc2n(Cc2ccccc2)n1Cc1ccccc1 | > 200 | 13.2 | – |
| Clc1cnc(Oc2ccccc2)c2ccccc12 | > 200 | 64.6 | – |
| C#Cc1cc(CN(CC(=O)OC(C)(C)C)CC(=O)OC(C)(C)C)nc(CN(CC(=O)OC(C)(C)C)CC(=O)OC(C)(C)C)c1 | > 11.5 | 0.204 | – |
| CCOC(=O)C1=NNC(C(=O)c2ccccc2)C1c1ccccc1 (stereo not given) | > 200 | 2.19 | – |
| O=C1OC[C@@H]2CCCN2Cc2ccccc21 | > 87.1 | > 87.1 | – |
| CN(C)CCC1(C)OCCC2=C1Cc1ccccc12 (stereo not given) | > 200 | 135 | – |
| S=C1NC(/C=C/c2ccccc2)N2C(=S)NC(/C=C\c3ccccc3)N12 (stereo not given) | – | – | inactive |
| Cc1ccc(-c2ccc(Nc3c4ccccc4nc4ccccc34)cc2)cn1 | > 200 | 2.69 | – |
| COC1/C=C/OC2(C)Oc3c(C)c(O)c4c(O)c(c(C=NNC(=O)C(CO)(c5ccccc5)c5ccccc5)c(O)c4c3C2=O)NC(=O)/C(C)=C/C=C/C(C)C(O)C(C)C(O)C(C)C(OC(C)=O)C1C (stereo not given) | > 200 | 32.4 | – |
| Cc1ccc2c(c1)sc1nnc(S(C)(=O)=O)n12 | > 200 | 11.2 | – |
| CCSC(=O)/C=C1\CN(C(=O)OC(C)(C)C)C1C(=O)OC(C)(C)C (stereo not given) | > 200 | 1.1 | – |
| S=C1NCCNC(=S)SSC(=S)SS1 | > 2.34 | > 2.34 | – |
| Cc1cn(C2OC(CO[Si](C)(C)C(C)(C)C)C(N(C)O[Si](C)(C)C(C)(C)C)C2[Se]c2ccccc2)c(=O)[nH]c1=O (stereo not given) | > 200 | 8.32 | – |
| c1ccc(C2N=C(c3ccccn3)C(c3ccccn3)=NC2c2ccccc2)cc1 (stereo not given) | > 9.77 | > 9.77 | – |
| O=C1OC(CS(=O)(=O)c2ccccc2)CC1O (stereo not given) | > 200 | > 200 | – |
| COc1ccccc1NC(=O)CC(=O)NNCC(=O)Nc1nnc(-c2ccccc2)o1 | > 85.1 | > 85.1 | – |
| NC(=O)c1cnc2sc3ccccc3n2c1=O | > 200 | > 200 | – |

| Structure (SMILES) | EC50 [µM] | IC50 [µM] | outcome |
| --- | --- | --- | --- |
| O=CCC(O)C(O)C(O)CO (stereo not given) | > 759 | > 759 | – |
| C[C@H]1S[C@@H](c2ccc(Cl)cc2Cl)N(NC(=O)c2ccncc2)C1=O | > 200 | 74.1 | – |
| COc1ccccc1NC(=O)C1=C(C)NC(C)=C(C(=O)Nc2ccccc2OC)C1c1ccccc1OC | > 19.5 | > 19.5 | – |
| C=C1SC(=Nc2cccc(OC)c2)N(c2nc(Cl)nc(Cl)n2)C1(C)C | > 112 | 20 | – |
| N#Cc1c(N2CCCC2)[nH]c(=O)n(Cc2ccccc2)c1=S | > 200 | 115 | – |
| O=C(/C=C\c1ccccc1)c1ccc(-c2cccc(-c3ccccc3)c2)cc1 | > 200 | 110 | – |
| Nc1ncnc2c1ncn2C1C=CC(COS(N)(=O)=O)C1 (stereo not given) | > 100 | 52.5 | – |
| N#Cc1cc2c(n(NS(=O)(=O)c3ccccc3)c1=O)CCC2 | > 200 | > 200 | – |
| CC1CCC2[C@@H](C)COC3O[C@]4(C)CCC1C32OO4 (stereo not given in full) | > 339 | 302 | – |
| CCCCC(CC)CCC(CCC(CC)CCCC)S(=O)(=O)O (stereo not given) | > 200 | > 200 | – |
| CC(C)=CCC[C@@H](C)C1=C(O)C(N[C@H](C)c2ccccc2)=C(C)C(=O)C1=O | > 200 | 1.66 | – |
| COc1ccc(/C=N/N/C(O)=c2/sc(=C(C#N)C#N)n(-c3ccccc3)c2=N)cc1 | > 9.12 | > 9.12 | – |
| COc1ccccc1/C=C1\SC(=S)N(/C=C2\C(=O)Oc3ccccc3C2=O)C1=O | > 200 | 27.5 | – |
| CC1(CC(=O)O)C(=O)CCCC1=O | – | – | inactive |
| O=C1NN(Cc2ccccc2)C(=O)N2CCC[C@@H]12 | > 200 | > 200 | – |
| COc1cc(Cc2nnc(Nc3ccccc3)[nH]c2=O)cc(OC)c1OC | > 257 | > 257 | – |
| COP1(=O)NCc2ncccc2O1 (stereo not given) | > 200 | > 200 | – |
| COCC1OCCN1C (stereo not given) | > 200 | > 200 | – |
